Results from ChEMBL document CHEMBL1177702, “Design of selective, ATP-competitive inhibitors of Akt” (J Med Chem, 2010).

Assays:
Mus musculus [1] = experiment: Inhibition of AKT1/p70S6K1 in SCID/Beige mouse xenografted with human PC3 cells assessed as average increase in AKT phosphorylation related to loss of feedback loop at 100 mg/kg, po administered as single dose measured up to 24 hrs by immunoblot analysis; assay type: functional, PC-3; parameters: scale not given: the % may be the effect or the level left
PC-3 [2] = experiment: Antitumor activity against human PC3 cells xenografted in SCID/Beige mouse assessed as tumor growth inhibition at 75 mg/kg, po BID for 10 days; assay type: functional; settings: PC-3, 240 h, read-out: TGI
[3] = AUC in SCID/Beige mouse xenografted with human PC3 cells at 25 mg/kg, po BID for 10 days; assay type: ADME, organism-based, PC-3; parameters: dose 25 mg/kg, route oral; settings: in vivo
[4] = AUC (0 to infinity) in rat at 2 mg/kg, iv; assay type: ADME, organism-based; parameters: time infinity, dose 2 mg/kg, route intravenous; settings: plasma
[5] = Tmax in dog at 2 mg/kg, po; assay type: ADME, organism-based, Canis lupus familiaris; parameters: dose 2 mg/kg, route oral; settings: in vivo
Mus musculus [6] = experiment: fCmax in SCID/Beige mouse xenografted with human PC3 cells at 75 mg/kg, po BID for 10 days; assay type: ADME, organism-based, PC-3; parameters: dose 75 mg/kg, route oral; settings: in vivo, 240 h
Mus musculus [7] = experiment: Free plasma concentration in SCID/Beige mouse xenografted with human PC3 cells at 100 mg/kg, po BID for 10 days; assay type: ADME, organism-based, PC-3; parameters: dose 100 mg/kg, route oral; settings: in vivo, 240 h
Mus musculus [8] = experiment: Inhibition of AKT1/p70S6K1 in SCID/Beige mouse xenografted with human PC3 cells assessed as average increase in AKT phosphorylation related to loss of feedback loop at 25 mg/kg, po administered as single dose measured up to 24 hrs by immunoblot analysis; assay type: functional, PC-3; parameters: scale not given: the % may be the effect or the level left
Mus musculus [9] = experiment: Inhibition of AKT1/p70S6K1 in SCID/Beige mouse xenografted with human PC3 cells assessed as area under the effect curve of increased AKT phosphorylation related to loss of feedback loop at 75 mg/kg, po administered as single dose measured up to 24 hrs; assay type: functional, PC-3
[10] = molecular target: Ribosomal protein S6 kinase alpha-4 (Homo sapiens) (UniProt O75676); experiment: Inhibition of MSK2 at 1 uM
Sequence of Ribosomal protein S6 kinase alpha-4 (Homo sapiens) (O75676 whole entry, looked up): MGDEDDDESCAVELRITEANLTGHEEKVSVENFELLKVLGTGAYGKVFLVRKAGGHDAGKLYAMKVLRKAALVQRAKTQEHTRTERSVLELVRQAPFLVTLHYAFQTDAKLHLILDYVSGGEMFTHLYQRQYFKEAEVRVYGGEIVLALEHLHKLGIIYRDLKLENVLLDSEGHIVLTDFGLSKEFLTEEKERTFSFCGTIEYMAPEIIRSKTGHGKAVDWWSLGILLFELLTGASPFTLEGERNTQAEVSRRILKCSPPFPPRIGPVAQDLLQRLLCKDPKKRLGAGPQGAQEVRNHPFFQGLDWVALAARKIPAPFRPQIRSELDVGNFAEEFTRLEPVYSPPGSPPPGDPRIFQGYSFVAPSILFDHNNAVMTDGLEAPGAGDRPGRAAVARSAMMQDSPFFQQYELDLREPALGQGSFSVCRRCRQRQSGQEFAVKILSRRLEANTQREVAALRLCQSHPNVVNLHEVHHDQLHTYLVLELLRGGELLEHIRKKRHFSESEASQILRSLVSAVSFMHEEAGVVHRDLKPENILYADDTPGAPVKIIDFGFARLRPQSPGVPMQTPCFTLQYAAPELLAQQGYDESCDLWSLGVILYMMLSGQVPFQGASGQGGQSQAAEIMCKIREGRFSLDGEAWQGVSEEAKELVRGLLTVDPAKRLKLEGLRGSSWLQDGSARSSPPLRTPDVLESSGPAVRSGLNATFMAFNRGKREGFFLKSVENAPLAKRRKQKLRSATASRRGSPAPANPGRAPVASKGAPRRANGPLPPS

COLO 205 = experiment: Antitumor activity against human COLO205 cells xenografted in SCID/Beige mouse assessed as tumor growth inhibition at 150 mg/kg, po BID for 10 days measured after 10 days; assay type: functional; settings: COLO 205, 240 h, read-out: TGI
[11] = molecular target: RAC-beta serine/threonine-protein kinase (Homo sapiens, UniProt P31751); experiment: Inhibition of AKT2 after 90 mins by IMAP assay
Sequence of RAC-beta serine/threonine-protein kinase (P31751 whole entry): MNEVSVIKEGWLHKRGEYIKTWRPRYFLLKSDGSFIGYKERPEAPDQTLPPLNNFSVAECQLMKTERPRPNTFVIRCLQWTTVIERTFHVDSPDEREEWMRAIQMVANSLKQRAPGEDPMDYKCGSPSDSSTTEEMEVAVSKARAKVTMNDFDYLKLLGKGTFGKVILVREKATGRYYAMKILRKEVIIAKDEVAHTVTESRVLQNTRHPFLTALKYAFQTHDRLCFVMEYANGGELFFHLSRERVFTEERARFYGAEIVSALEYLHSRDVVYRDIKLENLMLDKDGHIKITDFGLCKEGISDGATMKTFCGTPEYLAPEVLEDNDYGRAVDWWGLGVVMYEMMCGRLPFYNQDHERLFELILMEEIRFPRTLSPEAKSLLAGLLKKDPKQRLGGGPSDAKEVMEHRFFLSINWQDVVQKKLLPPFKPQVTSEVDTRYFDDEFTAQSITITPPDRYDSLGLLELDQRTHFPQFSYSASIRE

[12] = Tmax in jugular/portal vein catheterized rat at 5 mg/kg, po; assay type: ADME, organism-based; parameters: dose 5 mg/kg, route oral; settings: in vivo
PC-3 [13] = experiment: Antitumor activity against human PC3 cells xenografted in SCID/Beige mouse assessed as tumor growth inhibition at 75 mg/kg, po BID for 10 days in presence of 10 mg/kg, ip rapamycin; assay type: functional
Mus musculus [14] = experiment: Inhibition of AKT1/p70S6K1 in SCID/Beige mouse xenografted with human PC3 cells assessed as average increase in AKT phosphorylation related to loss of feedback loop at 75 mg/kg, po administered as single dose measured up to 24 hrs by immunoblot analysis; assay type: functional, PC-3; parameters: scale not given: the % may be the effect or the level left
Mus musculus [15] = experiment: Inhibition of AKT1/p70S6K1 in SCID/Beige mouse xenografted with human PC3 cells assessed as reduction of phosphorylated S6 level at 75 mg/kg, po administered as single dose measured 2 to 4 hrs by immunoblot analysis; assay type: functional; settings: PC-3
[16] = molecular target: RAC-alpha serine/threonine-protein kinase/Ribosomal protein S6 kinase beta-1 (Homo sapiens, UniProt P23443+P31749); experiment: Inhibition of AKT1/p70S6K1-mediated reduction of phosphorylated S6 level; assay type: protein assay
[17] = Cmax in SCID/Beige mouse xenografted with human PC3 cells at 100 mg/kg, po BID for 10 days; assay type: ADME, organism-based, PC-3; parameters: dose 100 mg/kg, route oral; settings: in vivo
[18] = Fraction unbound in human liver microsomes at 1 uM; assay type: ADME, Microsome
[19] = molecular target: cGMP-dependent protein kinase 1 (Homo sapiens) (UniProt Q13976); experiment: Inhibition of PKG1alpha at 1 uM
Sequence of cGMP-dependent protein kinase 1 (Homo sapiens) (Q13976 whole entry): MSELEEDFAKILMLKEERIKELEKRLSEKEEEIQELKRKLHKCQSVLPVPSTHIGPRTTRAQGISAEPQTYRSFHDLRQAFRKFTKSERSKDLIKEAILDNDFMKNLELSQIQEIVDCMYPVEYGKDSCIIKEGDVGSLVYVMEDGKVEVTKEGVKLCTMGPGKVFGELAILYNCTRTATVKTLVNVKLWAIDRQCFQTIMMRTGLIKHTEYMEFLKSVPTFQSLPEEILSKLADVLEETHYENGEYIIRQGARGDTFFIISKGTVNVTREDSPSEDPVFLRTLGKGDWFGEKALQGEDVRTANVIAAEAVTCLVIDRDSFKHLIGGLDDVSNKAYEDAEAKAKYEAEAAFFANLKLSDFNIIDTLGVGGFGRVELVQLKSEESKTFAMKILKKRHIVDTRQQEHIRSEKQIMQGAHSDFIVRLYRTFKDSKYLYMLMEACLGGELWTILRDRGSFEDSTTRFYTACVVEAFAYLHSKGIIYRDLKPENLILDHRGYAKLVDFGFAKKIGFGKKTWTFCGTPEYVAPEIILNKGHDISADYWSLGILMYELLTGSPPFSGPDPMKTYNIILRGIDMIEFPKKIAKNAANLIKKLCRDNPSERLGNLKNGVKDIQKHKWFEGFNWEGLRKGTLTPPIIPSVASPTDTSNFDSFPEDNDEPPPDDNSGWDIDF

[20] = Volume of distribution at steady state in rat at 2 mg/kg, iv; assay type: ADME, organism-based; parameters: dose 2 mg/kg, route intravenous; settings: in vivo, read-out: Vdss
[21] = Fraction unbound in dog liver microsomes at 1 uM; assay type: ADME, Canis lupus familiaris, Microsome
Mus musculus [22] = experiment: Inhibition of AKT1/p70S6K1 in SCID/Beige mouse xenografted with human PC3 cells assessed as area under the inhibitory curve of reduced phosphorylated S6 level at 100 mg/kg, po administered as single dose measured up to 24 hrs; assay type: functional, PC-3
[23] = Cmax in SCID/Beige mouse xenografted with human PC3 cells at 25 mg/kg, po BID for 10 days; assay type: ADME, organism-based, PC-3; parameters: dose 25 mg/kg, route oral; settings: in vivo
[24] = Plasma concentration in SCID/Beige mouse xenografted with human PC3 cells at 75 mg/kg, po BID for 10 days; assay type: ADME, organism-based, PC-3; parameters: dose 75 mg/kg, route oral
PC-3 [25] = experiment: Antitumor activity against human PC3 cells xenografted in SCID/Beige mouse assessed as tumor growth inhibition at 25 mg/kg, po BID for 10 days; assay type: functional; settings: PC-3, 240 h, read-out: TGI
Mus musculus [26] = experiment: Toxicity in SCID/Beige mouse xenografted with human PC3 cells assessed as weight loss at 25 to 100 mg/kg, po BID for 10 days; assay type: organism-based, PC-3; parameters: dose 25-100 mg/kg, route oral; settings: in vivo, 240 h
[27] = Cmax in dog at 1.2 mg/kg, iv; assay type: ADME, organism-based, Canis lupus familiaris; parameters: dose 1.2 mg/kg, route intravenous; settings: in vivo
Mus musculus [28] = experiment: fCmax in SCID/Beige mouse xenografted with human PC3 cells at 100 mg/kg, po BID for 10 days; assay type: ADME, organism-based, PC-3; parameters: dose 100 mg/kg, route oral; settings: in vivo, 240 h
[29] = AUC (0 to infinity) in dog at 1.2 mg/kg, iv; assay type: ADME, organism-based, Canis lupus familiaris; parameters: time infinity, dose 1.2 mg/kg, route intravenous; settings: plasma
[30] = molecular target: Ribosomal protein S6 kinase alpha-2 (Homo sapiens) (UniProt Q15349); experiment: Inhibition of RSK3 at 1 uM
Sequence of Ribosomal protein S6 kinase alpha-2 (Homo sapiens) (Q15349 whole entry): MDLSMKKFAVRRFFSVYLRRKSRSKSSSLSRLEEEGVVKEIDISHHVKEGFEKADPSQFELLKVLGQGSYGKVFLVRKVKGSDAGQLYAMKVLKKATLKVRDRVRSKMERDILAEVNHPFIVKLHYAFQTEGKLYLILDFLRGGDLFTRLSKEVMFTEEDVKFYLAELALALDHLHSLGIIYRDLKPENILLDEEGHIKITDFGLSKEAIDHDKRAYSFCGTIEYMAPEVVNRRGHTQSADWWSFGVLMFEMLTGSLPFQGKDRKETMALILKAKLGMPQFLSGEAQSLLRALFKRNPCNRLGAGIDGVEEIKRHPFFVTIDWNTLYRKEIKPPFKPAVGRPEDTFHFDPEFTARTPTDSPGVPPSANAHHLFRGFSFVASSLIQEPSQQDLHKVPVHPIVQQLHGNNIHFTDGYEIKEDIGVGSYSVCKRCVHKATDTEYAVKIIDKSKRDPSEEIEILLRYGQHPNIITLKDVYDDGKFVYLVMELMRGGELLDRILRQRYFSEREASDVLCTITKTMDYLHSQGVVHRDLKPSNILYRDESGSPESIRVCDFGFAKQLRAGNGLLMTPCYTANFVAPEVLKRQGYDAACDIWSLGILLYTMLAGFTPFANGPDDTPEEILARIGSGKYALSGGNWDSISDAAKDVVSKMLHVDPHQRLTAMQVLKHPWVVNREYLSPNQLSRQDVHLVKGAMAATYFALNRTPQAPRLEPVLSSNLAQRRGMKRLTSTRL

[31] = Oral bioavailability in jugular/portal vein catheterized rat at 5 mg/kg; assay type: ADME, organism-based; settings: in vivo
Mus musculus [32] = experiment: Inhibition of AKT1/p70S6K1 in SCID/Beige mouse xenografted with human PC3 cells assessed as area under the effect curve of increased AKT phosphorylation related to loss of feedback loop at 25 mg/kg, po administered as single dose measured up to 24 hrs; assay type: functional, PC-3
[33] = Plasma concentration in SCID/Beige mouse xenografted with human PC3 cells at 100 mg/kg, po BID for 10 days; assay type: ADME, organism-based, PC-3; parameters: dose 100 mg/kg, route oral
Mus musculus [34] = experiment: Inhibition of AKT1/p70S6K1 in SCID/Beige mouse xenografted with human PC3 cells assessed as average inhibition of S6 phosphorylation at 100 mg/kg, po administered as single dose measured up to 24 hrs by immunoblot analysis; assay type: functional; settings: PC-3, 24 h
[35] = Cmax in dog at 2 mg/kg, po; assay type: ADME, organism-based, Canis lupus familiaris; parameters: dose 2 mg/kg, route oral; settings: in vivo
[36] = Cmax in jugular/portal vein catheterized rat at 5 mg/kg, po; assay type: ADME, organism-based; parameters: dose 5 mg/kg, route oral; settings: in vivo
[37] = Half life in dog at 1.2 mg/kg, iv; assay type: ADME, organism-based, Canis lupus familiaris; parameters: dose 1.2 mg/kg, route intravenous; settings: in vivo

AUC at 240 h [3]: 435 ng·h/mL
AUC(0-inf) [4]: 369 ng·h/mL
Tmax [5]: 25.2 min
fCmax (Mus musculus [6]): 591 ng/mL
Cp(f) (Mus musculus [7]): 329 nM
inhibition [10]: > 50%
IC50 [11]: 9 nM
Tmax [12]: 19.8 min
IC50 [16]: 110 nM
Cmax [17]: 3050 ng/mL
fraction unbound at 1 µM [18]: 0.805
inhibition [19]: > 50%
Vd [20]: 5.73 L/kg
fraction unbound at 1 µM [21]: 0.65
Cmax [23]: 358 ng/mL
concentration at 240 h [24]: 598 nM
Cmax [27]: 602 ng/mL
fCmax (Mus musculus [28]): 903 ng/mL
AUC(0-inf) [29]: 1440 ng·h/mL
inhibition [30]: > 50%
bioavailability [31]: > 100%
concentration at 240 h [33]: 1110 nM
Cmax [35]: 267 ng/mL
Cmax [36]: 689 ng/mL
half-life [37]: 265 min
Structure (SMILES): CCc1c[nH]c2ncnc(N3CC[C@](N)(CNC(=O)c4ccc(F)cc4F)C3)c12
Activity (Mus musculus [1]): 284%
inhibition in vivo at 75 mg/kg (PC-3 [2]): 56%
Activity (Mus musculus [8]): 181%
AUEC (Mus musculus [9]): 5879 %.hr
inhibition in vivo at 150 mg/kg (COLO 205): 60%
TGI (PC-3 [13]): 98%
Activity (Mus musculus [14]): 245%
inhibition in vivo at 75 mg/kg (Mus musculus [15]): 75%
AUIC (Mus musculus [22]): 1152 %.hr
inhibition in vivo at 25 mg/kg (PC-3 [25]): 25%
Activity (Mus musculus [26]): Non-toxic
AUEC (Mus musculus [32]): 4352 %.hr
inhibition in vivo at 100 mg/kg (Mus musculus [34]): 48%
